Laboratory results from PubChem BioAssay AID1963847 (Molecular Pharmacology Branch, DTP, NCI, 2024).

Test system: 415267-285-R-J2-PDC complex spheroid viability
Assay: Anticancer human tumor 415267-285-R-J2-PDC patient-derived breast carcinoma cell line growth inhibition [POLQ]
Details: for IC50: curve of first compound; for viability, T/C: stronger effect = lower value
Method in brief: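 Growth inhibition in 3D: complex spheroids (tumor PDC, HUVEC, MSC) treated with POLQ inhibitor combinations; where Cmax unknown, highest tested concentration 10 microM, except SN-38 at 1 microM.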

[1] = second compound 0.0316 µM, first compound 0.0316 µM
[2] = second compound 0.0316 µM, first compound 0.1 µM
[3] = second compound 0.0316 µM, first compound 0.316 µM
[4] = second compound 0.0316 µM, first compound 1 µM
[5] = second compound 0.0316 µM, first compound 3.16 µM
[6] = second compound 0.0316 µM, first compound 10 µM
[7] = second compound 0.1 µM, first compound 0.0316 µM
[8] = second compound 0.1 µM, first compound 0.1 µM
[9] = second compound 0.1 µM, first compound 0.316 µM
[10] = second compound 0.1 µM, first compound 1 µM
[11] = second compound 0.1 µM, first compound 3.16 µM
[12] = second compound 0.1 µM, first compound 10 µM
[13] = second compound 0.316 µM, first compound 0.0316 µM
[14] = second compound 0.316 µM, first compound 0.1 µM
[15] = second compound 0.316 µM, first compound 0.316 µM
[16] = second compound 0.316 µM, first compound 1 µM
[17] = second compound 0.316 µM, first compound 3.16 µM
[18] = second compound 0.316 µM, first compound 10 µM
[19] = second compound 1 µM, first compound 0.0316 µM
[20] = second compound 1 µM, first compound 0.1 µM
[21] = second compound 1 µM, first compound 0.316 µM
[22] = second compound 1 µM, first compound 1 µM
[23] = second compound 1 µM, first compound 3.16 µM
[24] = second compound 1 µM, first compound 10 µM
[25] = second compound 3.16 µM, first compound 0.0316 µM
[26] = second compound 3.16 µM, first compound 0.1 µM
[27] = second compound 3.16 µM, first compound 0.316 µM
[28] = second compound 3.16 µM, first compound 1 µM
[29] = second compound 3.16 µM, first compound 3.16 µM
[30] = second compound 3.16 µM, first compound 10 µM
[31] = second compound 10 µM, first compound 0.0316 µM
[32] = second compound 10 µM, first compound 0.1 µM
[33] = second compound 10 µM, first compound 0.316 µM
[34] = second compound 10 µM, first compound 1 µM
[35] = second compound 10 µM, first compound 3.16 µM
[36] = second compound 10 µM, first compound 10 µM
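Further: spheroids exposed to compounds for one week before readout.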
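Wherever viability, T/C is given: luminescence used as stand-in measure of viable cells; 100% = DMSO vehicle control viability.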

## C=CC(=O)N1CCN(c2nc(=O)n(-c3c(C)ccnc3C(C)C)c3nc(-c4c(O)cccc4F)c(F)cc23)C(C)C1 (stereo not given) + COC1C(OC(N)=O)C(O)C(Oc2ccc3c(O)c(NC(=O)c4ccc(O)c(CC=C(C)C)c4)c(=O)oc3c2C)OC1(C)C
Second compound 0.0316 µM
  IC50: > 10 µM
Second compound 0.1 µM
  IC50: > 10 µM
Second compound 0.316 µM
  IC50: > 10 µM
Second compound 1 µM
  IC50: > 10 µM
Second compound 3.16 µM
  IC50: > 10 µM
Second compound 10 µM
  IC50: > 10 µM
[1]
  viability, T/C: 103%
[2]
  viability, T/C: 93.4%
[3]
  viability, T/C: 105%
[4]
  viability, T/C: 92.6%
[5]
  viability, T/C: 112%
[6]
  viability, T/C: 92.2%
[7]
  viability, T/C: 85.4%
[8]
  viability, T/C: 97.5%
[9]
  viability, T/C: 98.5%
[10]
  viability, T/C: 93%
[11]
  viability, T/C: 108%
[12]
  viability, T/C: 103%
[13]
  viability, T/C: 103%
[14]
  viability, T/C: 89.8%
[15]
  viability, T/C: 82.8%
[16]
  viability, T/C: 107%
[17]
  viability, T/C: 112%
[18]
  viability, T/C: 93%
[19]
  viability, T/C: 98.6%
[20]
  viability, T/C: 94.5%
[21]
  viability, T/C: 93.9%
[22]
  viability, T/C: 97%
[23]
  viability, T/C: 97.5%
[24]
  viability, T/C: 98.2%
[25]
  viability, T/C: 101%
[26]
  viability, T/C: 102%
[27]
  viability, T/C: 97.2%
[28]
  viability, T/C: 101%
[29]
  viability, T/C: 101%
[30]
  viability, T/C: 95.9%
[31]
  viability, T/C: 95.1%
[32]
  viability, T/C: 95.8%
[33]
  viability, T/C: 112%
[34]
  viability, T/C: 109%
[35]
  viability, T/C: 90.6%
[36]
  viability, T/C: 86.9%

## CC(C)n1c(=O)n(C)c2cnc3cc(F)c(-c4ccc(OCCCN5CCCCC5)nc4)cc3c21 + COC1C(OC(N)=O)C(O)C(Oc2ccc3c(O)c(NC(=O)c4ccc(O)c(CC=C(C)C)c4)c(=O)oc3c2C)OC1(C)C
Second compound 0.0316 µM
  IC50: > 10 µM
Second compound 0.1 µM
  IC50: > 10 µM
Second compound 0.316 µM
  IC50: > 10 µM
Second compound 1 µM
  IC50: > 10 µM
Second compound 3.16 µM
  IC50: > 10 µM
Second compound 10 µM
  IC50: > 10 µM
[1]
  viability, T/C: 97.5%
[2]
  viability, T/C: 97.6%
[3]
  viability, T/C: 95.6%
[4]
  viability, T/C: 94.1%
[5]
  viability, T/C: 101%
[6]
  viability, T/C: 99.2%
[7]
  viability, T/C: 89.8%
[8]
  viability, T/C: 93.6%
[9]
  viability, T/C: 107%
[10]
  viability, T/C: 104%
[11]
  viability, T/C: 103%
[12]
  viability, T/C: 95.3%
[13]
  viability, T/C: 96.8%
[14]
  viability, T/C: 95.8%
[15]
  viability, T/C: 104%
[16]
  viability, T/C: 110%
[17]
  viability, T/C: 112%
[18]
  viability, T/C: 89.5%
[19]
  viability, T/C: 99.6%
[20]
  viability, T/C: 103%
[21]
  viability, T/C: 91.2%
[22]
  viability, T/C: 102%
[23]
  viability, T/C: 95.5%
[24]
  viability, T/C: 97%
[25]
  viability, T/C: 107%
[26]
  viability, T/C: 91.4%
[27]
  viability, T/C: 89%
[28]
  viability, T/C: 98.2%
[29]
  viability, T/C: 107%
[30]
  viability, T/C: 98.8%
[31]
  viability, T/C: 101%
[32]
  viability, T/C: 99.5%
[33]
  viability, T/C: 93.5%
[34]
  viability, T/C: 114%
[35]
  viability, T/C: 98.4%
[36]
  viability, T/C: 82.5%

## CC1COCCN1c1cc(-c2ccnn2C)c2ccnc(-c3ccn[nH]3)c2n1 (stereo not given) + COC1C(OC(N)=O)C(O)C(Oc2ccc3c(O)c(NC(=O)c4ccc(O)c(CC=C(C)C)c4)c(=O)oc3c2C)OC1(C)C
Second compound 0.0316 µM
  IC50: < 0.0316 µM
Second compound 0.1 µM
  IC50: 0.0363 µM
Second compound 0.316 µM
  IC50: < 0.0316 µM
Second compound 1 µM
  IC50: 0.039 µM
Second compound 3.16 µM
  IC50: 0.0354 µM
Second compound 10 µM
  IC50: 0.0412 µM
[1]
  viability, T/C: 47%
[2]
  viability, T/C: 12.6%
[3]
  viability, T/C: 6.23%
[4]
  viability, T/C: 5.27%
[5]
  viability, T/C: 4.48%
[6]
  viability, T/C: 3.41%
[7]
  viability, T/C: 55.3%
[8]
  viability, T/C: 11.5%
[9]
  viability, T/C: 6.16%
[10]
  viability, T/C: 3.96%
[11]
  viability, T/C: 4.03%
[12]
  viability, T/C: 4.38%
[13]
  viability, T/C: 48.4%
[14]
  viability, T/C: 11.8%
[15]
  viability, T/C: 5.97%
[16]
  viability, T/C: 5.08%
[17]
  viability, T/C: 4.16%
[18]
  viability, T/C: 5.11%
[19]
  viability, T/C: 58.5%
[20]
  viability, T/C: 11.5%
[21]
  viability, T/C: 5.09%
[22]
  viability, T/C: 6.05%
[23]
  viability, T/C: 4.42%
[24]
  viability, T/C: 4.44%
[25]
  viability, T/C: 53.9%
[26]
  viability, T/C: 15.8%
[27]
  viability, T/C: 7.15%
[28]
  viability, T/C: 5.85%
[29]
  viability, T/C: 4.13%
[30]
  viability, T/C: 4.16%
[31]
  viability, T/C: 61.3%
[32]
  viability, T/C: 12.8%
[33]
  viability, T/C: 6.51%
[34]
  viability, T/C: 4.55%
[35]
  viability, T/C: 4.33%
[36]
  viability, T/C: 4.73%

## CC1COCCN1c1cc(C2(S(C)(=N)=O)CC2)nc(-c2ccnc3[nH]ccc23)n1 (stereo not given) + COC1C(OC(N)=O)C(O)C(Oc2ccc3c(O)c(NC(=O)c4ccc(O)c(CC=C(C)C)c4)c(=O)oc3c2C)OC1(C)C
Second compound 0.0316 µM
  IC50: 0.463 µM
Second compound 0.1 µM
  IC50: 0.432 µM
Second compound 0.316 µM
  IC50: 0.504 µM
Second compound 1 µM
  IC50: 0.512 µM
Second compound 3.16 µM
  IC50: 0.591 µM
Second compound 10 µM
  IC50: 0.513 µM
[1]
  viability, T/C: 105%
[2]
  viability, T/C: 108%
[3]
  viability, T/C: 67.2%
[4]
  viability, T/C: 14.9%
[5]
  viability, T/C: 6.29%
[6]
  viability, T/C: 4.89%
[7]
  viability, T/C: 105%
[8]
  viability, T/C: 96.6%
[9]
  viability, T/C: 65.3%
[10]
  viability, T/C: 9.55%
[11]
  viability, T/C: 5.9%
[12]
  viability, T/C: 4.32%
[13]
  viability, T/C: 95.4%
[14]
  viability, T/C: 96.3%
[15]
  viability, T/C: 76.2%
[16]
  viability, T/C: 11.6%
[17]
  viability, T/C: 7.22%
[18]
  viability, T/C: 5.59%
[19]
  viability, T/C: 93.2%
[20]
  viability, T/C: 97.7%
[21]
  viability, T/C: 76.2%
[22]
  viability, T/C: 13.5%
[23]
  viability, T/C: 10%
[24]
  viability, T/C: 4.78%
[25]
  viability, T/C: 95%
[26]
  viability, T/C: 105%
[27]
  viability, T/C: 89.8%
[28]
  viability, T/C: 16.4%
[29]
  viability, T/C: 6.8%
[30]
  viability, T/C: 4.43%
[31]
  viability, T/C: 97.5%
[32]
  viability, T/C: 97.9%
[33]
  viability, T/C: 76.5%
[34]
  viability, T/C: 13.5%
[35]
  viability, T/C: 6.73%
[36]
  viability, T/C: 5.32%

## COc1ccc([C@@H](O)c2cc(-c3ncnc4cc(N5CCOCC5)ccc34)c(F)cc2Cl)nn1 + COC1C(OC(N)=O)C(O)C(Oc2ccc3c(O)c(NC(=O)c4ccc(O)c(CC=C(C)C)c4)c(=O)oc3c2C)OC1(C)C
Second compound 0.0316 µM
  IC50: 8.63 µM
Second compound 0.1 µM
  IC50: 8.03 µM
Second compound 0.316 µM
  IC50: 7.09 µM
Second compound 1 µM
  IC50: 9.18 µM
Second compound 3.16 µM
  IC50: 8.15 µM
Second compound 10 µM
  IC50: 9.75 µM
[1]
  viability, T/C: 104%
[2]
  viability, T/C: 92.5%
[3]
  viability, T/C: 97.9%
[4]
  viability, T/C: 89%
[5]
  viability, T/C: 78.4%
[6]
  viability, T/C: 45.3%
[7]
  viability, T/C: 95.3%
[8]
  viability, T/C: 104%
[9]
  viability, T/C: 97.9%
[10]
  viability, T/C: 106%
[11]
  viability, T/C: 99.5%
[12]
  viability, T/C: 38.3%
[13]
  viability, T/C: 101%
[14]
  viability, T/C: 98%
[15]
  viability, T/C: 101%
[16]
  viability, T/C: 87.7%
[17]
  viability, T/C: 77.9%
[18]
  viability, T/C: 38.3%
[19]
  viability, T/C: 94.3%
[20]
  viability, T/C: 97.2%
[21]
  viability, T/C: 97.1%
[22]
  viability, T/C: 100%
[23]
  viability, T/C: 76.2%
[24]
  viability, T/C: 48%
[25]
  viability, T/C: 105%
[26]
  viability, T/C: 108%
[27]
  viability, T/C: 97.1%
[28]
  viability, T/C: 103%
[29]
  viability, T/C: 79.7%
[30]
  viability, T/C: 43.5%
[31]
  viability, T/C: 102%
[32]
  viability, T/C: 97.8%
[33]
  viability, T/C: 98%
[34]
  viability, T/C: 96.3%
[35]
  viability, T/C: 90.9%
[36]
  viability, T/C: 48.8%
